We go through 6 molecules from ChEMBL document CHEMBL1201862, “PubChem BioAssay data set” (2004).

Assay [1] deals with T1, Delta-type opioid receptor (Homo sapiens, UniProt P41143). Description: HTS Image-Based Screen for Agonists of the DOR Receptor. [Related pubchem assays (depositor defined):AID1777, AID1786, AID2133]. The assay is classed as functional.
Assay [2] deals with T2, Kappa-type opioid receptor (Homo sapiens, UniProt P41145). The assay is classed as functional.
The target of assay [3] is T1, Delta-type opioid receptor. Briefly: DOR agonists, SAR follow-up, image-based (AID 2370). The assay is classed as functional.
The target in assay [4] is T3, Mu-type opioid receptor (Homo sapiens, UniProt P35372). Briefly: mu opioid receptor blockers – image-based, SAR follow-up (AID 2420).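 Note: compounds added before stimulation of receptor with agonist DAMGO.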 Format: functional.
The target of assay [5] is T2, Kappa-type opioid receptor. Description: SAR analysis of small molecule agonists of the kappa opioid receptor via a luminescent beta-arrestin assay. [Related pubchem assays (depositor defined):AID1777, AID1786, AID1966, AID2133, AID2136, AID2348, AID2352, AID2357, AID2359, AID2370, AID2420, AID2478, AID2491, AID2492, AID2493, AID2497, AID2498, AID2500, AID449737, AID488822, AID488842]. Format: functional.

Assay [6] concerns the target T2, Kappa-type opioid receptor. Description: kappa opioid receptor activation potency – imaging, image-based, SAR follow-up (AID 2359). The assay is classed as functional.
Assay [7] has as its target T2, Kappa-type opioid receptor. Format: functional. The source holds these as a separate data set.
Assay [8] has as its target T1, Delta-type opioid receptor. Briefly: delta opioid receptor blockers – image-based, SAR follow-up (AID 2357). The assay is classed as functional.
Assay [9] addresses T3, Mu-type opioid receptor. Briefly: HTS Image-Based Screen for Agonists of the MOR Receptor. [Related pubchem assays (depositor defined):AID1777, AID1785, AID1786, AID2133]. Format: functional.
In assay [10] the target is T3, Mu-type opioid receptor. Briefly: mu opioid receptor activators, image-based, SAR follow-up (AID 2352). The assay is classed as functional.
Assay [11] concerns the target T1, Delta-type opioid receptor. Description: HTS Image-Based Screen for Antagonists of the DOR Receptor. [Related pubchem assays (depositor defined):AID1777, AID1785, AID1786, AID2133]. Format: functional.
Assay [12] addresses T2, Kappa-type opioid receptor. Description: kappa opioid receptor blockers, image-based, SAR follow-up (AID 2348). Format: functional.
The target of assay [13] is Metabotropic glutamate receptor 4 (Homo sapiens, UniProt Q14833). Description: Modulation of the Metabotropic Glutamate Receptor mGluR4: Potency at human mGluR4. Modulation of intracellular Ca2+ using Fluo-4, AM, in CHO expressing recombinant receptor [Related pubchem assays (depositor defined):AID2437, AID2807]. Format: functional, cell-based.
Another assay deals with Wee1-like protein kinase (Homo sapiens, UniProt P30291). Briefly: HeLa cell cycle G2/M accumulation – FACS, mechanism study for Wee1 degradation inhibitor project, late-stage follow-up, panel member Wee1 Degradation (AID 2088).
The target in assay [14] is G2/mitotic-specific cyclin-B1 (Homo sapiens, UniProt P14635). Description: HeLa cell cycle G2/M accumulation – FACS, mechanism study for Wee1 degradation inhibitor project, late-stage follow-up, panel member Cyclin B Degradation (AID 2088).
The target of assay [15] is Polyadenylate-binding protein 1 (Homo sapiens, UniProt P11940). Description: blockers of PABP interaction with poly(A) – biochemical, fluorescence polarization, […] (AID 2014). On the technique in general: In fluorescence polarisation assays a small probe gives low polarisation when free and higher when bound to something large.
Assay [16] concerns BJ. Description: BJ-TERT fibroblast viability loss – cell-based, RAS-independent, luminescence, dose response (AID 1933). Conditions: Homo sapiens. The assay is classed as functional.
Assay [17] has as its target Eukaryotic translation initiation factor 4H (Homo sapiens, UniProt Q15056). Description: eIF4H binding inhibition – biochemical, uHTS, fluorescence polarization, translation initiation inhibitor project, primary screen (AID 2012).
The subject of assay [18] is BJ. Briefly: BJ-TERT-LT-ST fibroblast viability loss – cell-based, RAS-independent, luminescence, dose response (AID 1935).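 Note: BJ fibroblasts immortalized with TERT plus LT and ST oncogenes.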 Format: functional. Conditions: Homo sapiens.
The nature of assay [19]: DRD fibroblast viability loss – cell-based, non-viral oncogenic, luminescence, dose response (AID 1934). Format: functional. The settings on record: Homo sapiens.
For the next assay, the target named is Estrogen receptor beta (Homo sapiens, UniProt Q92731).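 Note: recombinant ER-beta bound to coactivator SRC1 peptide in presence of estradiol agonist; inhibitors block coactivator peptide binding and lower the FRET signal.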
In another assay the target is Estrogen receptor (Homo sapiens, UniProt P03372).
The subject of assay [20] is BJ. Description: cells. The assay is classed as functional, cell-based. Conditions: Homo sapiens.
A short description of assay [21]: HEK-293T viability loss after treatment – luminescence, T-cell screen hits, cytotoxicity control for TCR NF-kB inhibitor project, dose response (AID 489026).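 Note: cells exposed to compound about 14 hours before the viability readout.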 The assay is classed as functional, cell-based.
The target in assay [22] is Signal transducer and activator of transcription 3 (Homo sapiens, UniProt P40763). Description: STAT3 activation with BCL3 mRNA and toxicity – cell-based, […], BCL3 qPCR, cytotoxicity, late-stage follow-up, panel member STAT3 Activation (AID 2049). Background: Quantitative PCR measures a nucleic acid by following its amplification.
Assay [23] is described as follows: Luminescence Cell-Based Dose Response HTS to Identify Inhibitors of 5'UTR Stem-Loop Driven Prion Protein mRNA Translation in H4 Neuroglioblastoma Cells. [Related pubchem assays: 1827 (Project Summary), 1813 (Primary HTS)]. The assay is classed as functional.
Assay [24] is described as follows: alpha-synuclein stem-loop luciferase translation blockers – H4 neuroglioma cells, luminescence, confirmation (AID 1988). Format: functional, cell-based.
Assay [25] in a line: luciferase reporter signal suppression in cells – H4 neuroglioma cells, luminescence, dose response (AID 1990). Format: functional, cell-based. (A reporter such as luciferase makes a cellular process visible.)
Assay [26] is described as follows: HEK-293T cell viability reduction – luminescence, B-cell screen hits, cytotoxicity control for BCR NF-kB inhibitor project, dose response (AID 489021).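 Note: HEK-293T cells carrying an NF-kB luciferase reporter; cells exposed to compound for about 14 hours before viability readout.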 Format: functional, cell-based.

Calls of active or inactive are those of the source. A value given as a limit tells only on which side of the number the result lay.

T3 sequence (P35372 whole entry): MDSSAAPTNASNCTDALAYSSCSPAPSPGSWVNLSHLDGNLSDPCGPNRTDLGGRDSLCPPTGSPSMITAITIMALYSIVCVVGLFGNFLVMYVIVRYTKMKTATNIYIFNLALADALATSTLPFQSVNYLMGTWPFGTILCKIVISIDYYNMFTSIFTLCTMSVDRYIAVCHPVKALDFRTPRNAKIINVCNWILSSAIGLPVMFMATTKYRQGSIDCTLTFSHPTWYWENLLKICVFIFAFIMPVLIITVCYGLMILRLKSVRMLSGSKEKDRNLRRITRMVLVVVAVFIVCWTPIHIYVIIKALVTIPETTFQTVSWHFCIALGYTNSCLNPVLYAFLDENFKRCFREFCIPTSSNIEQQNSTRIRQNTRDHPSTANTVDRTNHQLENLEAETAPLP
T2 sequence (P41145 whole entry): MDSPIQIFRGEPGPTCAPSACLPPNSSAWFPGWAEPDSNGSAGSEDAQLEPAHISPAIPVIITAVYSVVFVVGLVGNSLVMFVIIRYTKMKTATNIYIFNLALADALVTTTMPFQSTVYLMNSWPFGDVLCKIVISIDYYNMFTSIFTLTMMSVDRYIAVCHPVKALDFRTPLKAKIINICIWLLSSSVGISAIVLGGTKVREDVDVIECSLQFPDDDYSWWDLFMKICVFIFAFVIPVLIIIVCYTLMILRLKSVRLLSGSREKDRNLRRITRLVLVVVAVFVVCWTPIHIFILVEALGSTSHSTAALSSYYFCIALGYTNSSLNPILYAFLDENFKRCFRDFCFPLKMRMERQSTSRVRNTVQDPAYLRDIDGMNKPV
T1 sequence (P41143 whole entry): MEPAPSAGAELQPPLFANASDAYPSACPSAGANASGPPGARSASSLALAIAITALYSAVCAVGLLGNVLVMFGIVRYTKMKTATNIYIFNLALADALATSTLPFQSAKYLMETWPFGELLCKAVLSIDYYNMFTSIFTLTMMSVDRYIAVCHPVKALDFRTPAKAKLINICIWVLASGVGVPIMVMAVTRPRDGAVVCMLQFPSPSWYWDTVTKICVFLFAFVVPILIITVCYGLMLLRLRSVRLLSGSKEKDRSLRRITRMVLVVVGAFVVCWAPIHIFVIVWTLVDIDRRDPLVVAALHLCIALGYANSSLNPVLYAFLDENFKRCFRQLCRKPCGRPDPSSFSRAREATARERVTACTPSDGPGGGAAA
Chain of Signal transducer and activator of transcription 3 (P40763 whole entry): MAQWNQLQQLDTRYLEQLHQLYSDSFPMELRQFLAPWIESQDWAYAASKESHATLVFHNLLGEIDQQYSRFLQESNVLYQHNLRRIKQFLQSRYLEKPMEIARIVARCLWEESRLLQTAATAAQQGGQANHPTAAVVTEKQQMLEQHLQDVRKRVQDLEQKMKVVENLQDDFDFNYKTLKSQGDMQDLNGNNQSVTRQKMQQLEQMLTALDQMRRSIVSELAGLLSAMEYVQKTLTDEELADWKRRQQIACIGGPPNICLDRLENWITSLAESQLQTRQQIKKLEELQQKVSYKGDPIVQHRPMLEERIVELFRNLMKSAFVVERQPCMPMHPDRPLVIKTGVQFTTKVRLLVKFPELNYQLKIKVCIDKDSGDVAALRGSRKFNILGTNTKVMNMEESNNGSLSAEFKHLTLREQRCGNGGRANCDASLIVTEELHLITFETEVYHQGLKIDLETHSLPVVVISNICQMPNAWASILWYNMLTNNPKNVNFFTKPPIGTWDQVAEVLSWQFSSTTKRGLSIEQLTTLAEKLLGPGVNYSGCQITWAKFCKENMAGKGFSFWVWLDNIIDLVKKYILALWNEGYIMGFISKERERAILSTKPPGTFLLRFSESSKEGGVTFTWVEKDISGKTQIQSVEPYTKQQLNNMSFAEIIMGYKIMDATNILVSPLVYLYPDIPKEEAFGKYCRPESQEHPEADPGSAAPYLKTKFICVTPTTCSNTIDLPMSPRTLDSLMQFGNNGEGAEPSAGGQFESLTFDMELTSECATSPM
Chain of Estrogen receptor (P03372 whole entry): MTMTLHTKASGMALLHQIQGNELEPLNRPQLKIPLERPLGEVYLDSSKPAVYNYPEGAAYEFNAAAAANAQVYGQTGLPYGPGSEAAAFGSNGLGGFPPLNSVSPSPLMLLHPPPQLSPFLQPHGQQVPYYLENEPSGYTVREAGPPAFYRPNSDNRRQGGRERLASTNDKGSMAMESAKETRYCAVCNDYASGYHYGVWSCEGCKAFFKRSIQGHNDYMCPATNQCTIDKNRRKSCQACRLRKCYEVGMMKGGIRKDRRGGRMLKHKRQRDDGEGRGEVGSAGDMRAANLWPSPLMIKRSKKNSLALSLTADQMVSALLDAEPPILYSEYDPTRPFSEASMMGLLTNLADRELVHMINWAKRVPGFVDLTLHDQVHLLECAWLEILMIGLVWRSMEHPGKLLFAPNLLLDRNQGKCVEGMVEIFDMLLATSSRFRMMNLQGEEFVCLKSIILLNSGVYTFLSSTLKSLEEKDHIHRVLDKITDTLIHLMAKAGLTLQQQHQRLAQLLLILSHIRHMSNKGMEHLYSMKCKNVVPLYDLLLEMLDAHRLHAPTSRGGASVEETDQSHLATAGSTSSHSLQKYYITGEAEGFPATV
Chain of Estrogen receptor beta (Q92731 whole entry): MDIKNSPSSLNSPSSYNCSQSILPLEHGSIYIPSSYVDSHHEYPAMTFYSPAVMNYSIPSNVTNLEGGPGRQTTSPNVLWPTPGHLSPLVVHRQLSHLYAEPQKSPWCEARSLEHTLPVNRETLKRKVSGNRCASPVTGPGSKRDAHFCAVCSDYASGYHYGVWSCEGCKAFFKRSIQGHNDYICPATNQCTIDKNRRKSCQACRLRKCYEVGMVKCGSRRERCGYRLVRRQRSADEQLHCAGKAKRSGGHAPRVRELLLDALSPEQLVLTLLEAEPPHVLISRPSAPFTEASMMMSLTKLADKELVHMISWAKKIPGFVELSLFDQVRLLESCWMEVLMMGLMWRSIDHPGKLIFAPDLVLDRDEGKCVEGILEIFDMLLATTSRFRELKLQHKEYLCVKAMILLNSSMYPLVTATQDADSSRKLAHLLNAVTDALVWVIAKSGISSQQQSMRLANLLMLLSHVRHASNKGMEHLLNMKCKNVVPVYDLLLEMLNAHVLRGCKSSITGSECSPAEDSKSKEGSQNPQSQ
Chain of Metabotropic glutamate receptor 4 (Q14833 whole entry): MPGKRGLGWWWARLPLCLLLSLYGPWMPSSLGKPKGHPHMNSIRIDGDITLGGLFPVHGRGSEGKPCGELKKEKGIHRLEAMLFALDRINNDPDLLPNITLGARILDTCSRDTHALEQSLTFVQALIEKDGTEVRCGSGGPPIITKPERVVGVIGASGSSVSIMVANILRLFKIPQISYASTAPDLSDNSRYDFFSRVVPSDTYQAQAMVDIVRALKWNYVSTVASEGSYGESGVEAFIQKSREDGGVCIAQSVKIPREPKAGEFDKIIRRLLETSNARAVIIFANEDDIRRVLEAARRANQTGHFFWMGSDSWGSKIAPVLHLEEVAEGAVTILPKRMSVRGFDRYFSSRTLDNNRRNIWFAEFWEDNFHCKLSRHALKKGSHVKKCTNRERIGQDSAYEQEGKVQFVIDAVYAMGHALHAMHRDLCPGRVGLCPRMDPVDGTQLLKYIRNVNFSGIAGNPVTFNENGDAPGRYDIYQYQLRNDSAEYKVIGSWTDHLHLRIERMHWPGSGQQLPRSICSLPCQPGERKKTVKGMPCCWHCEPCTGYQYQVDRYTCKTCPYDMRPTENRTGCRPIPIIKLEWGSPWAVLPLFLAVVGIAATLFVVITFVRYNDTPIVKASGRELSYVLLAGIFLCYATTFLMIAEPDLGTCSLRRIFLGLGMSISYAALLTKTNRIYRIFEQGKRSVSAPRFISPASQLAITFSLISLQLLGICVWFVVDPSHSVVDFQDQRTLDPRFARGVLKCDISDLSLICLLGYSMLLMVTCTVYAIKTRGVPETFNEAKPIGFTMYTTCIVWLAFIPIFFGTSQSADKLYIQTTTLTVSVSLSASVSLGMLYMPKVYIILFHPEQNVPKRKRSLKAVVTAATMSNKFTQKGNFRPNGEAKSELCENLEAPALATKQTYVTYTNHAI
Chain of G2/mitotic-specific cyclin-B1 (P14635 whole entry): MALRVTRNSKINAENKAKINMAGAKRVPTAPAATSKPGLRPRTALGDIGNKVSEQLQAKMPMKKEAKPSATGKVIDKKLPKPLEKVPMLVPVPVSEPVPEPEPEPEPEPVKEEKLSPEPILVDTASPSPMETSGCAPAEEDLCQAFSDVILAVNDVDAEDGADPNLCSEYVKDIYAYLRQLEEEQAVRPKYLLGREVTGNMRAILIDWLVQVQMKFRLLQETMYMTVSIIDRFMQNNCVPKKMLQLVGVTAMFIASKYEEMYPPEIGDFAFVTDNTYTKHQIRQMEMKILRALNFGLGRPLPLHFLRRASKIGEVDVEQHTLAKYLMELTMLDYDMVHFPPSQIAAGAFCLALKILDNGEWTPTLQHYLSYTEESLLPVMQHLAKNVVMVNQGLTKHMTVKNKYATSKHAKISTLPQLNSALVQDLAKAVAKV

As usually defined, the EC50 is the concentration giving half of the maximal effect. A word on the IC50: it is the concentration that inhibits the measured activity by half. Turning to `COc1ccc(CN(CC2CCCO2)C(=O)CN2C(=O)COc3ccccc32)cc1OC` (centres undefined), the EC50 in assay [1] was > 32 µM (inactive); in assay [2], 11.5 µM; in [3], > 32 µM (inactive); in assay [5] it was > 10 µM (inactive); in [6], 4.88 µM (active); in assay [7] it was 11 µM. Moreover, the EC50 at Mu-type opioid receptor [9] and at Mu-type opioid receptor [10] was > 32 µM (inactive) throughout. Further, the IC50 (at Mu-type opioid receptor [4]; in [8]; in assay [11]; in [12]) was > 32 µM (inactive) throughout.

Regarding `N#Cc1ccc(NC(=O)c2ccccn2)cc1C(F)(F)F`, in [13], the EC50 is 1.77 µM (active).

Turning to `Cc1ccc(NC(=O)CCCOc2cc(=O)n(C)c3ccccc23)c(Cl)c1`, the EC50 (on Wee1-like protein kinase; in [14]) was > 49.7 µM (inactive) each time.

Consider `C/C=C/COC(=O)c1[nH]c2c(c1C)C(=O)CC(c1ccco1)C2` (centres undefined), for which the half-inhibitory concentration (IC50) was 45.8 µM (active) in assay [15]; 21.7 µM (active) in assay [17]; > 50 µM (not active) against Estrogen receptor beta; 24.7 µM (active) at Estrogen receptor; > 80 µM (inactive) in assay [21]. In addition, the EC50 with BJ [16] is 2.84 µM (inconclusive); with BJ [18], 4.74 µM (inconclusive); in [19], 2.76 µM (active); in the assay on BJ [20], 2.76 µM (active).

For `COc1cc(NC(=O)c2cc(C3CC3)on2)cc(OC)c1`, the EC50 in assay [22] is > 5.57 µM (inactive).

As to `Cc1ccc(C(=O)NNC(=O)CCCN2C(=O)/C(=C/c3ccccc3Cl)SC2=S)cc1`, the concentration for a half-maximal effect (EC50) in assay [23] is > 120 µM (not active); in assay [24] it was 14 µM (active); in assay [25], 10.8 µM (active). Also, the IC50 in assay [26] is > 80 µM (inactive).
